Source: the NIST ThermoML archive (doi:10.1016/j.tca.2005.10.007)

Assay: xn = mol fraction of the nth substance listed
Details: 101 kPa, Liquid, Vibrating tube method

CC(O)CN (configuration not stated) [1-amino-2-propanol] + O
mass density [kg/m3]
Details	283.15 K	288.15 K	293.15 K	298.15 K	303.15 K	308.15 K	313.15 K	318.15 K
x2 = 0.0438	970.22	966.31	962.38	958.41	954.42	950.39	946.34	942.26
x2 = 0.0801	971.77	967.87	963.94	959.99	956.01	952	947.96	943.89
x2 = 0.1269	974.08	970.22	966.31	962.38	958.41	954.42	950.39	946.33
x2 = 0.1584	975.52	971.66	967.77	963.84	959.89	955.9	951.88	947.83
x2 = 0.2003	977.67	973.82	969.94	966.03	962.09	958.11	954.1	950.06
x2 = 0.2999	983.38	979.58	975.73	971.85	967.94	963.99	960	955.98
x2 = 0.3498	986.51	982.72	978.89	975.02	971.12	967.18	963.21	959.19
x2 = 0.3999	989.63	985.84	982.02	978.16	974.27	970.34	966.36	962.35
x2 = 0.4499	993.04	989.26	985.45	981.59	977.71	973.78	969.81	965.8
x2 = 0.4968	996.4	992.66	988.85	985	981.12	977.19	973.23	969.22
x2 = 0.5122	997.62	993.86	990.05	986.21	982.33	978.4	974.44	–
x2 = 0.5501	1000.3	996.55	992.74	988.89	985.01	981.09	977.12	–
x2 = 0.6001	1004.18	1000.45	996.65	992.81	988.93	985.01	981.05	–
x2 = 0.6501	1007.83	1004.09	1000.3	996.47	992.61	988.7	984.75	–
x2 = 0.7	1011.17	1007.46	1003.71	999.92	996.09	992.22	988.3	–
x2 = 0.7501	1013.81	1010.2	1006.54	1002.84	999.1	995.31	991.48	–
x2 = 0.8	1014.93	1011.54	1008.08	1004.58	1001.02	997.41	993.74	–
x2 = 0.84	1014.28	1011.22	1008.08	1004.86	1001.58	998.22	994.79	–
x2 = 0.88	1011.59	1009.04	1006.38	1003.61	1000.73	997.76	994.67	–
x2 = 0.92	1007.29	1005.41	1003.37	1001.17	998.83	996.33	993.7	–
x2 = 0.96	1002.39	1001.24	999.86	998.26	996.47	994.49	992.33	–
